Test results as given in patent publication US6436963B1 (priority 1998, dated 2002).

What was measured:
Erysiphe graminis = assay: Powdery Mildew of Wheat (ERYSGT), protectant spray test on wheat seedlings; type: in vivo; details: wheat (cultivar Monon), sprayed to run off at 100 ppm, inoculated after 24 hours
Puccinia recondita = assay: Brown Rust (PUCCRT), protectant spray test on wheat seedlings; type: in vivo; details: wheat (cultivar Monon), sprayed to run off at 100 ppm, inoculated after 24 hours
Phytophthora infestans = type: in vivo; details: tomatoes (cultivar Rutgers), sprayed to run off at 100 ppm, inoculated after 24 hours
Septoria tritici = details: wheat (cultivar Monon), sprayed to run off at 100 ppm, inoculated after 24 hours
Leptosphaeria nodorum = assay: Glume Blotch of Wheat (LEPTNO), protectant spray test on wheat seedlings; type: in vivo; details: wheat (cultivar Monon), sprayed to run off at 100 ppm, inoculated after 24 hours

## CNC(=O)C(=NOC)c1ccccc1COc1ncc(C(O)c2ccccc2)cc1C (racemic) [Example 13]
Erysiphe graminis
  ERYSGT control of plant disease: ++ (++ = 75-100% control of plant disease)
Puccinia recondita
  PUCCRT control of plant disease: ++ (++ = 75-100% control of plant disease)
Phytophthora infestans
  PHYTIN control of plant disease: ++ (++ = 75-100% control of plant disease)
Septoria tritici
  SEPTTR control of plant disease: ++ (++ = 75-100% control of plant disease)

## CNC(=O)C(=NOC)c1ccccc1COc1ncc(C(O)c2ccc(F)cc2)cc1C (racemic) [Example 14]
Erysiphe graminis
  ERYSGT control of plant disease: ++ (++ = 75-100% control of plant disease)
Puccinia recondita
  PUCCRT control of plant disease: ++ (++ = 75-100% control of plant disease)
Phytophthora infestans
  PHYTIN control of plant disease: ++ (++ = 75-100% control of plant disease)
Septoria tritici
  SEPTTR control of plant disease: ++ (++ = 75-100% control of plant disease)

## CNC(=O)C(=NOC)c1ccccc1COc1ncc(C(O)c2ccc(Cl)cc2)cc1C (racemic) [Example 15]
Erysiphe graminis
  ERYSGT control of plant disease: ++ (++ = 75-100% control of plant disease)
Puccinia recondita
  PUCCRT control of plant disease: ++ (++ = 75-100% control of plant disease)
Phytophthora infestans
  PHYTIN control of plant disease: ++ (++ = 75-100% control of plant disease)
Septoria tritici
  SEPTTR control of plant disease: ++ (++ = 75-100% control of plant disease)

## CNC(=O)C(=NOC)c1ccccc1COc1ncc(C(O)c2ccc(OC(F)(F)F)cc2)cc1Cl (racemic) [Example 16]
Erysiphe graminis
  ERYSGT control of plant disease: ++ (++ = 75-100% control of plant disease)
Puccinia recondita
  PUCCRT control of plant disease: ++ (++ = 75-100% control of plant disease)
Phytophthora infestans
  PHYTIN control of plant disease: − (− = 0-24% control of plant disease)
Septoria tritici
  SEPTTR control of plant disease: ++ (++ = 75-100% control of plant disease)

## CCOCCOC(c1ccccc1)c1cnc(OCc2ccccc2C(=NOC)C(=O)NC)c(Cl)c1 (stereo not shown) [Example 118]
Erysiphe graminis
  ERYSGT control of plant disease: ++ (++ = 75-100% control of plant disease)
Puccinia recondita
  PUCCRT control of plant disease: ++ (++ = 75-100% control of plant disease)
Leptosphaeria nodorum
  LEPTNO control of plant disease: ++ (++ = 75-100% control of plant disease)
Phytophthora infestans
  PHYTIN control of plant disease: − (− = 0-24% control of plant disease)

## CNC(=O)C(=NOC)c1ccccc1COc1ncc(C(OC(C)(C)C)c2ccccc2)cc1Cl (stereo not shown) [Example 119]
Erysiphe graminis
  ERYSGT control of plant disease: ++ (++ = 75-100% control of plant disease)
Puccinia recondita
  PUCCRT control of plant disease: ++ (++ = 75-100% control of plant disease)
Leptosphaeria nodorum
  LEPTNO control of plant disease: ++ (++ = 75-100% control of plant disease)
Phytophthora infestans
  PHYTIN control of plant disease: ++ (++ = 75-100% control of plant disease)

## CCCOC(c1ccccc1)c1cnc(OCc2ccccc2C(=NOC)C(=O)NC)c(Cl)c1 (stereo not shown) [Example 120]
Erysiphe graminis
  ERYSGT control of plant disease: ++ (++ = 75-100% control of plant disease)
Puccinia recondita
  PUCCRT control of plant disease: − (− = 0-24% control of plant disease)
Leptosphaeria nodorum
  LEPTNO control of plant disease: + (+ = 25-74% control of plant disease)
Phytophthora infestans
  PHYTIN control of plant disease: + (+ = 25-74% control of plant disease)

## CNC(=O)C(=NOC)c1ccccc1COc1ncc(C2(c3ccccc3)COC(C)(C)O2)cc1Cl (stereo not shown) [Example 123]
Erysiphe graminis
  ERYSGT control of plant disease: ++ (++ = 75-100% control of plant disease)
Puccinia recondita
  PUCCRT control of plant disease: ++ (++ = 75-100% control of plant disease)
Leptosphaeria nodorum
  LEPTNO control of plant disease: ++ (++ = 75-100% control of plant disease)
Phytophthora infestans
  PHYTIN control of plant disease: ++ (++ = 75-100% control of plant disease)

## CNC(=O)C(=NOC)c1ccccc1COc1ncc(C2(c3ccccc3)CO2)cc1Cl (stereo not shown) [Example 124]
Erysiphe graminis
  ERYSGT control of plant disease: ++ (++ = 75-100% control of plant disease)
Puccinia recondita
  PUCCRT control of plant disease: ++ (++ = 75-100% control of plant disease)
Leptosphaeria nodorum
  LEPTNO control of plant disease: ++ (++ = 75-100% control of plant disease)
Phytophthora infestans
  PHYTIN control of plant disease: ++ (++ = 75-100% control of plant disease)

## CNC(=O)C(=NOC)c1ccccc1COc1ncc(C2(c3ccccc3)COC(=S)O2)cc1Cl (stereo not shown) [Example 125]
Erysiphe graminis
  ERYSGT control of plant disease: ++ (++ = 75-100% control of plant disease)
Puccinia recondita
  PUCCRT control of plant disease: ++ (++ = 75-100% control of plant disease)
Leptosphaeria nodorum
  LEPTNO control of plant disease: ++ (++ = 75-100% control of plant disease)
Phytophthora infestans
  PHYTIN control of plant disease: ++ (++ = 75-100% control of plant disease)
